Source: patent US20240279214A1, “ALPHA4 BETA7 INEGRIN ANTAGONISTS AND USES THEREOF” (XinThera, Inc., priority 2022, published 2024)
pEC50: −log10 of the molar value.

Each compound was assayed against T1, a4b7 integrin interaction with MadCAM-1 (Homo sapiens, UniProt P13612+P26010) (assay: a4b7 Cell Capture Assay (RPMI8866 cells on MAdCAM-1 Fc coated plates)). Conditions: 50% human serum, 1 mM MgCl2, 1 hour incubation, CellTiter-Glo luminescence, read-out: a4B7 cell capture assay RMPI8866-MadCAM EC50.
T1 construct: capture of a4b7 integrin expressing cells, RPMI8866; endogenous in cells; host or cells: RPMI8866
T1 sequence (P13612 34-1032): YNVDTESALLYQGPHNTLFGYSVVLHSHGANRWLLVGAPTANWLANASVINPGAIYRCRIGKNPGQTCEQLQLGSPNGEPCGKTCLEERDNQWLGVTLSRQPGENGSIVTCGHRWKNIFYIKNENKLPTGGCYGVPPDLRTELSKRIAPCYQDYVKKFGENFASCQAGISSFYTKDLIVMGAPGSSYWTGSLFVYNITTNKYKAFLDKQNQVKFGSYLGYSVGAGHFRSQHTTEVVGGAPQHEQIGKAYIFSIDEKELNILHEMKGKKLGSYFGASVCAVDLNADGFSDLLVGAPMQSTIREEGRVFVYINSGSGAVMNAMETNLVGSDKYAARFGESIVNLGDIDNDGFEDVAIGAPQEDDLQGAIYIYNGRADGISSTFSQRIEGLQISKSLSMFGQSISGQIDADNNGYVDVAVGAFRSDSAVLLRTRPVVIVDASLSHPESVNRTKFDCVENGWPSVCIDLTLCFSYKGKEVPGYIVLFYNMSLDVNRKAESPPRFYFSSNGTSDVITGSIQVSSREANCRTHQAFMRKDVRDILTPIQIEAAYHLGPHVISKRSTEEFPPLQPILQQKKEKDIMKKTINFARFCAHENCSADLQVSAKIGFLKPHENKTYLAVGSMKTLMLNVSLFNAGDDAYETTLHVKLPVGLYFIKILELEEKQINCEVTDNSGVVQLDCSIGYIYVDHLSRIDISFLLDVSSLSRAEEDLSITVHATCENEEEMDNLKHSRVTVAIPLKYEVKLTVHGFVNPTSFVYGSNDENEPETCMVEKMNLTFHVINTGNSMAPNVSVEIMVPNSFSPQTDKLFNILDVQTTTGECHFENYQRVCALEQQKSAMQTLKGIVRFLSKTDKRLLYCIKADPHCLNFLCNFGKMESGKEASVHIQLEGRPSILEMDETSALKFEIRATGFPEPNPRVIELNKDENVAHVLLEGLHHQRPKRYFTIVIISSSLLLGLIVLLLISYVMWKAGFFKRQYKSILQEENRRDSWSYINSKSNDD
T1 sequence (P26010 20-798): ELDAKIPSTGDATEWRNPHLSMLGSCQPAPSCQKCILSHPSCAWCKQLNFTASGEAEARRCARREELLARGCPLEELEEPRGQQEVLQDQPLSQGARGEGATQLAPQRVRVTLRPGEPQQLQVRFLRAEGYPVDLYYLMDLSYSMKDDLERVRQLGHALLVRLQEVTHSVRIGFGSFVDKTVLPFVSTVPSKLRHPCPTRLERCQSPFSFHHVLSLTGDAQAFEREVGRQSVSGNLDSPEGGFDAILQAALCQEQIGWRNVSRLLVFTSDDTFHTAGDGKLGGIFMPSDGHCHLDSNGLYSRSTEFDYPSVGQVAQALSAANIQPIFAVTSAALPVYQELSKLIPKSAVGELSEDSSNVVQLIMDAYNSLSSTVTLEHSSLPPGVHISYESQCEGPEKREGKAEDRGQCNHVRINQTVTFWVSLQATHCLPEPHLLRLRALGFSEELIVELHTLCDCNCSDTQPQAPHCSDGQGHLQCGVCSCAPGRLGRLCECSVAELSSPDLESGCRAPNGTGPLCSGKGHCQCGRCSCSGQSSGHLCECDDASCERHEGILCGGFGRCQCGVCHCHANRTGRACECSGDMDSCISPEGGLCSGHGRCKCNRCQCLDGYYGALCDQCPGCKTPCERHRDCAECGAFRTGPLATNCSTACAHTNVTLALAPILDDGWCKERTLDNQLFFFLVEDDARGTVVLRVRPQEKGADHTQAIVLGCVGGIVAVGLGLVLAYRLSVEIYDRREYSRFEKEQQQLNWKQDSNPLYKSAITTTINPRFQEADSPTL
Type: cell-based
Method: The potency of inhibitors in preventing a4b7 integrin interaction with MadCAM-1 was measured by monitoring the capture of a4b7 integrin expressing cells, RPMI8866, on recombinant human MAdCAM-1 Fc chimera protein-coated plates. The protein was a fusion between human MAdCAM-1 (Met1-Gln333, Accession #AAY82472) and human IgG1 (Pro100-Lys330)] (R&D Systems, Catalog #6056-MC). 96-well plates (Thermofisher, Catalog #136102) were coated with the recombinant protein by dispensing 100 μL (1.0 μg/mL) per well. After a quick spin to settle down the coating solution using a plate centrifuge, plates were incubated overnight at 4° C. in a moisture chamber. On Day 2, the plates were washed with PBS using a Bluecatbio Blue®Washer (GentleSpin wash, 3 cycles, pressure=1, volume 150 uL). Blocking solution (1.0% BSA in PBS, Sigma, Catalog #A7979) was then added at 200 uL/well, and the plates were quickly spun to settle down blocking buffer and incubated in cell culture incubator at 37° C. and 5% CO2 for 1 hour. The plates were then washed with 0.1% BSA in PBS using a Bluecatbio Blue®Washer (GentleSpin wash, 3 cycles, pressure=1, volume 150 uL). RPMI8866 cells suspended in assay medium (1 mM MgCl2 25 mM HEPES and 50% human serum, Sigma, Catalog #H4522) at a density of 1.0×10^6 cells/mL were added at 100 uL/well. Each compound evaluated was prepared as a DMSO stock solution. Test compounds were evaluated with a 9-point serial dilution curve (1000, 333.3, 111.1, 55.6, 27.8, 13.9, 6.9, 2.3, and 0.77 nM)) and were added to the plates using a Tecan D.30e Digita dispenser, the dispensed stock is 100 nL and the final DMSO concentration is 0.1%. Potent compounds were re-evaluated at a new 9-point serial dilution curve (100, 33.3, 11.1, 5.6, 2.8, 1.4, 0.69, 0.23, and 0.08 nM). Each titration curves were performed in triplicate on the same plate, and most of compounds were retested in different dates multiple times. The plates were shaken at 300 rpm on orbital plate shaker for 3 minutes to mix the cells and compounds, quickly spun to settle the cells and solution, and incubated in cell culture incubator at 37° C. and 5% CO2. After 1 hour incubation, the unbound cells were washed away with RPMI1640 medium supplemented with 1 mM MgCl2 and 1% BSA) (wash buffer) using a Bluecatbio Blue®Washer (MagbeadsSpin wash, 1 cycle, pressure 1, volume=150 uL). After wash buffer removal, A mixture of wash buffer/CellTiter-Glo® Reagent (Pormega, catalog #G7573) at 1:1 (V/V) was added at volume of 100 uL to each well. The plates were placed in a chamber at 25° C. and incubated for 30 minutes. Luminescence was recorded using a Envision plate reader 2105 according to CellTiter-Glo protocol.
The mean luminescence signals from negative control wells without MadCAM-1 coating and compound treatment (cells only) was defined as 100% binding inhibition, and the mean luminescence signals from positive control wells with MadCAM-1 coating but without compound treatment (MadCAM-1 and cells only) was defined as 0% binding inhibition. The luminescence signals from other compound treated wells were normalized in percentage scale accordingly. The normalized mean % inhibition data were plotted against logarithmic compound concentration in nanomolar and were fitted with 4-parameter logistic model to obtain IC50 for each compound.
`O=C(O)C[C@@H]1NC(=O)[C@@H](n2cc(CCN3CC(F)C3)c(C(F)(F)F)cc2=O)c2cccc(c2)Oc2cccc(Cl)c2-c2cc1c(F)c(C(F)(F)F)c2` (relative stereo) [Example 17, [(14R*,17S)-3-chloro-19-fluoro-14-{5-[2-(3-fluoroazetidin-1-yl)ethyl]-2-oxo-4-(trifluoromethyl)pyridin-1-yl}-15-oxo-20-(trifluoromethyl)-8-oxa-16-azatetracyclo[16.3.1.1^{9,13}.0^{2,7}]tricosa-1(22),2(7),3,5,9,11,13(23),18,20-nonaen-17-yl]acetic acid] was tested, and the pEC50 was 6.85. `Cc1cc2cc(c1F)[C@H](CC(=O)O)NC(=O)[C@H](n1cc(CCN3CC(F)C3)c(C(F)(F)F)cc1=O)c1cccc(c1)Cc1cccc(C)c1-2` (relative stereo) [Example 2, [(14R*,17S)-19-fluoro-14-{5-[2-(3-fluoroazetidin-1-yl)ethyl]-2-oxo-4-(trifluoromethyl)pyridin-1-yl}-3,20-dimethyl-15-oxo-16-azatetracyclo[16.3.1.1^{9,13}.0^{2,7}]tricosa-1(22),2(7),3,5,9,11,13(23),18,20-nonaen-17-yl]acetic acid] gave a pEC50 of 7.12. With `COC1CN(c2cc(C)c3c(c2)Oc2ccc(F)c(c2)[C@H](n2cc(CCN4CC(F)C4)c(C(F)(F)F)cc2=O)C(=O)N[C@@H](CC(=O)O)c2cc-3cc(C)c2F)C1` (single isomer, unassigned) [Example 41] the pEC50 was 7.68. With `Cc1cccc2c1-c1cc(c(F)c(C(F)(F)F)c1)[C@H](CC(=O)O)NC(=O)[C@@H](n1cc(CCN3CC(F)C3)c(C(F)(F)F)cc1=O)c1cc(cc(C(F)(F)F)c1)O2` (relative stereo) [Example 14, [(14R*,17S)-19-fluoro-14-{5-[2-(3-fluoroazetidin-1-yl)ethyl]-2-oxo-4-(trifluoromethyl)pyridin-1-yl}-3-methyl-15-oxo-11,20-bis(trifluoromethyl)-8-oxa-16-azatetracyclo[16.3.1.1^{9,13}.0^{2,7}]tricosa-1(22),2(7),3,5,9,11,13(23),18,20-nonaen-17-yl]acetic acid] the pEC50 was 7.42. `Cc1cc2cc(c1F)[C@H](CC(=O)O)NC(=O)[C@@H](n1cc(CCN3CCC(F)(F)CC3)c(C(F)(F)F)cc1=O)c1cc(ccc1F)COc1cccc(C)c1-2` (single isomer, unassigned) [Example 62] gave a pEC50 of 7.48. With `Cc1cccc2c1-c1cc(c(F)c(C(F)(F)F)c1)[C@H](CC(=O)O)NC(=O)[C@@H](n1cc(Cl)c(C(F)(F)F)cc1=O)c1cccc(c1)O2` [Example 39, [(17S)-14-[5-chloro-2-oxo-4-(trifluoromethyl)pyridin-1-yl]-19-fluoro-3-methyl-15-oxo-20-(trifluoromethyl)-8-oxa-16-azatetracyclo[16.3.1.1^{9,13}.0^{2,7}]tricosa-1(22),2(7),3,5,9,11,13(23),18,20-nonaen-17-yl]acetic acid] the pEC50 was < 7.00. `Cc1cccc2c1-c1cc(C3CC3)c(F)c(c1)[C@H](CC(=O)O)NC(=O)[C@@H](n1cc(CCN3CC(F)C3)c(C(F)(F)F)cc1=O)c1cccc(c1)O2` (relative stereo) [Example 9, [(14R*,17S)-20-cyclopropyl-19-fluoro-14-{5-[2-(3-fluoroazetidin-1-yl)ethyl]-2-oxo-4-(trifluoromethyl)pyridin-1-yl}-3-methyl-15-oxo-8-oxa-16-azatetracyclo[16.3.1.1^{9,13}.0^{2,7}]tricosa-1(21),2(7),3,5,9,11,13(23),18(22),19-nonaen-17-yl]acetic acid] was tested, and the pEC50 was 7.14. `Cc1cc2cc(c1F)[C@H](CC(=O)O)NC(=O)[C@@H](n1cc(CCN3CC(F)C3)c(C(F)(F)F)cc1=O)c1cc(ccc1F)Oc1cc(C3COC3)cc(C)c1-2` (single isomer, unassigned) [Example 57] gave a pEC50 of 8.59. Work on `Cc1cc2cc(c1F)[C@H](CC(=O)O)NC(=O)[C@@H](n1cc(CCN3CC(F)C3)c(C(F)(F)F)cc1=O)c1cc(ccc1F)Oc1cc(Cl)cc(C)c1-2` (relative stereo) [Example 55, [(14R*,17S)-5-chloro-12,19-difluoro-14-{5-[2-(3-fluoroazetidin-1-yl)ethyl]-2-oxo-4-(trifluoromethyl)pyridin-1-yl}-3,20-dimethyl-15-oxo-8-oxa-16-azatetracyclo[16.3.1.1^{9,13}.0^{2,7}]tricosa-1(22),2(7),3,5,9,11,13(23),18,20-nonaen-17-yl]acetic acid] yielded a pEC50 of 8.40. For `COc1cc(C)c2c(c1)Oc1ccc(F)c(c1)[C@H](n1ccc(C(F)(F)F)cc1=O)C(=O)N[C@@H](CC(=O)O)c1cc-2cc(C)c1F` (single isomer, unassigned) [Example 80], the pEC50 was 7.24. `Cc1cc(C)c2c(c1)Oc1cccc(c1)[C@H](n1cc(CCN3CC(F)C3)c(C(F)(F)F)cc1=O)C(=O)N[C@@H](CC(=O)O)c1cc-2cc(C(F)(F)F)c1F` (relative stereo) [Example 4, [(14R*,17S)-19-fluoro-14-{5-[2-(3-fluoroazetidin-1-yl)ethyl]-2-oxo-4-(trifluoromethyl)pyridin-1-yl}-3,5-dimethyl-15-oxo-20-(trifluoromethyl)-8-oxa-16-azatetracyclo[16.3.1.1^{9,13}.0^{2,7}]tricosa-1(21),2(7),3,5,9,11,13(23),18(22),19-nonaen-17-yl]acetic acid] showed a pEC50 of 6.36.
